Assays:
rat [1] = details: Subchronic oral toxicity in rodents, fischer, Feed, dose end: 13 week
mouse [2] = details: Carcinogenicity, cd1, Oral, Feed, dose end: 78 week
rat [3] = details: Multigenerational reproductive toxicity study, sprague dawley, Oral, Feed, dose end: 2 generation
dog [4] = details: Subchronic oral toxicity in nonrodent, beagle, Feed, dose end: 13 week
rat [5] = details: Multigenerational reproductive toxicity study, sprague dawley, Oral, Feed, dose end: 2 generation; remark: listed apart in the source
rat [6] = details: Combined chronic toxicity/carcinogenicity, fischer, Oral, Feed, dose end: 24 month
rat [7] = details: Subchronic oral toxicity in rodents, Gavage/Intubation, dose end: 91 day
rat [8] = details: Multigenerational reproductive toxicity study, sprague dawley, Oral, Gavage/Intubation, dose end: 2 generation
mouse [9] = details: Prenatal developmental toxicity study, cd1, Oral, Gavage/Intubation, dose end: 15 GD
rat [10] = details: Multigenerational reproductive toxicity study, sprague dawley, Oral, Gavage/Intubation, dose end: 2 generation; remark: listed apart in the source
rat [11] = details: Prenatal developmental toxicity study, fischer, Oral, Gavage/Intubation, dose end: 15 GD
rat [12] = details: Multigenerational reproductive toxicity study, sprague dawley, Oral, Feed, dose end: 3 generation
dog [13] = details: Chronic toxicity, beagle, Oral, Feed, dose end: 12 month
[14] = group: cholinesterase, cholinesterase / cholinesterase / cholinesterase / plasma cholinesterase (che)
[15] = group: systemic, systemic / hematology / platelet / platelet + systemic / organ weight / adrenal gland / absolute + systemic / organ weight / testes / …
[16] = group: systemic, systemic / pathology microscopic / adrenal gland / hypertrophy + systemic / pathology microscopic / adrenal gland / necrosis + systemic / …
[17] = group: cholinesterase, cholinesterase / cholinesterase / cholinesterase / brain cholinesterase (che) + cholinesterase / cholinesterase / cholinesterase / …
[18] = group: systemic, systemic / urinalysis / protein / protein
[19] = group: cholinesterase, cholinesterase / cholinesterase / cholinesterase / erythrocyte cholinesterase (che) + cholinesterase / cholinesterase / cholinesterase / …
[20] = group: offspring, developmental / offspring survival late / lactation index / lactation index + systemic / in life observation / body weight / offspring (pup…
[21] = group: parental, systemic / pathology microscopic / adrenal gland / [other] + systemic / pathology microscopic / adrenal gland / vacuolization + systemic / …
[22] = group: cholinesterase, cholinesterase / cholinesterase / cholinesterase / plasma cholinesterase (che) + cholinesterase / cholinesterase / cholinesterase / …
[23] = group: systemic, systemic / clinical chemistry / albumin / albumin + systemic / clinical chemistry / alkaline phosphatase (alp/alk) / alkaline phosphatase (…
[24] = group: cholinesterase, cholinesterase / cholinesterase / cholinesterase / erythrocyte cholinesterase (che)
[25] = group: offspring, systemic / organ weight / spleen / absolute + systemic / organ weight / spleen / relative to body weight
[26] = group: parental, systemic / pathology microscopic / adrenal gland / vacuolization cytoplasmic + systemic / organ weight / adrenal gland / absolute + systemic…
[27] = group: systemic, systemic / pathology microscopic / pituitary gland / adenoma + systemic / pathology microscopic / uterus / polyp stromal + systemic / …
[28] = group: maternal, reproductive / reproductive performance / estrous cycle / abnormal + reproductive / reproductive performance / estrous cycle / absent …
[29] = group: systemic, systemic / clinical chemistry / albumin / albumin + systemic / clinical chemistry / cholesterol / cholesterol + systemic / clinical …
[30] = group: systemic, systemic / clinical chemistry / sodium / sodium + systemic / pathology microscopic / mammary gland / hyperplastic alveolar nodule + systemic…
[31] = group: offspring, developmental / offspring survival late / viability index / viability index + systemic / in life observation / body weight / offspring (pup…
[32] = group: offspring, systemic / in life observation / body weight / offspring (pup) weight
[33] = group: parental, systemic / in life observation / clinical signs / reduced activity
[34] = group: parental, systemic / in life observation / clinical signs / reduced activity + systemic / organ weight / adrenal gland / relative to body weight + …
[35] = group: reproductive, reproductive / offspring survival early / litter size / litter size + reproductive / offspring survival early / live fetuses / live fetuses
[36] = group: reproductive, reproductive / reproductive performance / gestational length / gestational length + reproductive / reproductive performance / pregnancy …
[37] = group: developmental, developmental / developmental malformation / general / [other] + systemic / in life observation / body weight / fetal weight
[38] = group: developmental, systemic / in life observation / body weight / fetal weight
[39] = group: maternal, reproductive / reproductive performance / resorptions / resorptions + systemic / in life observation / body weight / body weight + systemic…
[40] = group: offspring, systemic / in life observation / body weight / offspring (pup) weight + systemic / in life observation / body weight / offspring (pup) …
[41] = group: parental, systemic / in life observation / body weight / body weight gain + systemic / in life observation / clinical signs / [other] + systemic / in …
[42] = group: parental, systemic / in life observation / clinical signs / reduced activity + systemic / in life observation / body weight / body weight gain + …
[43] = group: reproductive, reproductive / reproductive performance / estrous cycle / length + reproductive / reproductive performance / pregnancy index / pregnancy …
[44] = group: maternal, systemic / in life observation / clinical signs / hunched posture + systemic / in life observation / clinical signs / lacrimation + systemic…
[45] = group: offspring, systemic / in life observation / body weight / offspring (pup) weight + developmental / offspring survival late / viability index / …
[46] = group: parental, systemic / in life observation / body weight / body weight
[47] = group: parental, systemic / in life observation / body weight / body weight + systemic / in life observation / food consumption / food consumption
[48] = group: systemic, systemic / clinical chemistry / calcium / calcium + systemic / clinical chemistry / potassium / potassium + systemic / clinical chemistry / …

COP(=S)(OC)Oc1nc(Cl)c(Cl)cc1Cl [Chlorpyrifos-methyl]
LEL (rat [1]; [14]): 0.1 mg/kg/day
LOAEL (rat [1]; [14]): 0.1 mg/kg/day
NEL (rat [1]; [14]): < 0.1 mg/kg/day
NOAEL (rat [1]; [14]): < 0.1 mg/kg/day
LEL (rat [1]; [15]): 0.1 mg/kg/day
NEL (rat [1]; [15]): < 0.1 mg/kg/day
LOAEL (rat [1]; [16]): 10 mg/kg/day
NOAEL (rat [1]; [16]): 1 mg/kg/day
LEL (mouse [2]; [17]): 3.94 mg/kg/day
LOAEL (mouse [2]; [17]): 3.94 mg/kg/day
NEL (mouse [2]; [17]): 0.403 mg/kg/day
NOAEL (mouse [2]; [17]): 0.403 mg/kg/day
LOAEL (mouse [2]; group: systemic, systemic / pathology microscopic / liver / fatty change): 41.5 mg/kg/day
NOAEL (mouse [2]; group: systemic, systemic / pathology microscopic / liver / fatty change + systemic / clinical chemistry / alkaline phosphatase (alp/alk) / alkaline …): 3.94 mg/kg/day
LEL (mouse [2]; [18]): 0.0816 mg/kg/day
NEL (mouse [2]; [18]): < 0.0816 mg/kg/day
LEL (rat [3]; [19]): 1 mg/kg/day
LOAEL (rat [3]; [19]): 1 mg/kg/day
NEL (rat [3]; [19]): 0.1 mg/kg/day
NOAEL (rat [3]; [19]): 0.1 mg/kg/day
LEL (rat [3]; [20]): 5 mg/kg/day
LOAEL (rat [3]; [20]): 5 mg/kg/day
NEL (rat [3]; [20]): 1 mg/kg/day
NOAEL (rat [3]; [20]): 1 mg/kg/day
NEL (rat [3]; group: parental, systemic / pathology microscopic / adrenal gland / [other] + systemic / pathology microscopic / adrenal gland / vacuolization): 1 mg/kg/day
LEL (rat [3]; [21]): 5 mg/kg/day
LOAEL (rat [3]; [21]): > 5 mg/kg/day
NOAEL (rat [3]; [21]): ≥ 5 mg/kg/day
LEL (dog [4]; [14]): 0.1 mg/kg/day
NEL (dog [4]; [14]): < 0.1 mg/kg/day
LOAEL (dog [4]; [22]): 10 mg/kg/day
NOAEL (dog [4]; [22]): 0.1 mg/kg/day
LEL (dog [4]; [23]): 50 mg/kg/day
LOAEL (dog [4]; [23]): 50 mg/kg/day
NEL (dog [4]; [23]): 10 mg/kg/day
NOAEL (dog [4]; [23]): 10 mg/kg/day
LEL (rat [5]; [24]): 1 mg/kg/day
LOAEL (rat [5]; [24]): 1 mg/kg/day
NEL (rat [5]; [24]): < 1 mg/kg/day
NOAEL (rat [5]; [24]): < 1 mg/kg/day
LEL (rat [5]; [25]): 10 mg/kg/day
LOAEL (rat [5]; [25]): > 10 mg/kg/day
NEL (rat [5]; [25]): 3 mg/kg/day
NOAEL (rat [5]; [25]): ≥ 10 mg/kg/day
LOAEL (rat [5]; group: parental, systemic / pathology microscopic / adrenal gland / vacuolization cytoplasmic): 3 mg/kg/day
LEL (rat [5]; [26]): 3 mg/kg/day
NEL (rat [5]; [26]): 1 mg/kg/day
NOAEL (rat [5]; [26]): 1 mg/kg/day
LEL (rat [6]; [24]): 0.1 mg/kg/day
LOAEL (rat [6]; [19]): 1 mg/kg/day
NEL (rat [6]; [19]): 0.05 mg/kg/day
NOAEL (rat [6]; [19]): 0.1 mg/kg/day
LEL (rat [6]; group: systemic, systemic / pathology microscopic / pituitary gland / adenoma): 0.1 mg/kg/day
LOAEL (rat [6]; group: systemic, systemic / pathology microscopic / pituitary gland / adenoma + systemic / pathology microscopic / adrenal gland / vacuolization): 1 mg/kg/day
NEL (rat [6]; [27]): 0.05 mg/kg/day
NOAEL (rat [6]; [27]): 0.1 mg/kg/day

CS(=O)(=O)O.Cc1cc(CCN2CCN(c3nsc4ccccc34)CC2)cc2c1NC(=O)CC2(C)C
LEL (rat [7]; [28]): 10 mg/kg/day
LOAEL (rat [7]; [28]): > 60 mg/kg/day
NEL (rat [7]; [28]): < 10 mg/kg/day
NOAEL (rat [7]; [28]): ≥ 60 mg/kg/day
LOAEL (rat [7]; [29]): > 60 mg/kg/day
NOAEL (rat [7]; [29]): ≥ 60 mg/kg/day
LEL (rat [7]; [30]): 10 mg/kg/day
NEL (rat [7]; [30]): < 10 mg/kg/day

CN(C)CCCN1c2ccccc2Sc2ccc(Cl)cc21.Cl [Chlorpromazine hydrochloride]
LOAEL (rat [8]; [31]): > 100 mg/kg/day
NOAEL (rat [8]; [31]): ≥ 100 mg/kg/day
LEL (rat [8]; [32]): 12.5 mg/kg/day
NEL (rat [8]; [32]): < 12.5 mg/kg/day
LEL (rat [8]; [33]): 12.5 mg/kg/day
NEL (rat [8]; [33]): < 12.5 mg/kg/day
LOAEL (rat [8]; [34]): > 100 mg/kg/day
NOAEL (rat [8]; [34]): ≥ 100 mg/kg/day
LEL (rat [8]; [35]): 12.5 mg/kg/day
NEL (rat [8]; [35]): < 12.5 mg/kg/day
LOAEL (rat [8]; [36]): > 100 mg/kg/day
NOAEL (rat [8]; [36]): ≥ 100 mg/kg/day
LOAEL (mouse [9]; [37]): > 30 mg/kg/day
NEL (mouse [9]; [37]): 5 mg/kg/day
NOAEL (mouse [9]; [37]): ≥ 30 mg/kg/day
LEL (mouse [9]; [38]): 15 mg/kg/day
LOAEL (mouse [9]; [39]): > 30 mg/kg/day
NEL (mouse [9]; [39]): 5 mg/kg/day
NOAEL (mouse [9]; [39]): ≥ 30 mg/kg/day
LEL (mouse [9]; group: maternal, systemic / in life observation / body weight / body weight + systemic / in life observation / body weight / body weight gain): 15 mg/kg/day
LOAEL (rat [10]; [31]): > 100 mg/kg/day
NOAEL (rat [10]; [31]): ≥ 100 mg/kg/day
LEL (rat [10]; [40]): 12.5 mg/kg/day
NEL (rat [10]; [40]): < 12.5 mg/kg/day
LOAEL (rat [10]; [41]): > 100 mg/kg/day
NOAEL (rat [10]; [41]): ≥ 100 mg/kg/day
LEL (rat [10]; [42]): 12.5 mg/kg/day
NEL (rat [10]; [42]): < 12.5 mg/kg/day
LEL (rat [10]; group: reproductive, reproductive / reproductive performance / estrous cycle / length): 25 mg/kg/day
LOAEL (rat [10]; [43]): > 100 mg/kg/day
NEL (rat [10]; [43]): 12.5 mg/kg/day
NOAEL (rat [10]; [43]): ≥ 100 mg/kg/day
LEL (rat [11]; [38]): 5 mg/kg/day
LOAEL (rat [11]; [38]): > 45 mg/kg/day
NEL (rat [11]; [38]): < 5 mg/kg/day
NOAEL (rat [11]; [38]): ≥ 45 mg/kg/day
LOAEL (rat [11]; [39]): > 45 mg/kg/day
NOAEL (rat [11]; [39]): ≥ 45 mg/kg/day
LEL (rat [11]; [44]): 5 mg/kg/day
NEL (rat [11]; [44]): < 5 mg/kg/day

CNC(=O)Oc1cccc2c1OC(C)(C)C2 [Carbofuran]
NEL (rat [12]; [32]): 1 mg/kg/day
NOAEL (rat [12]; [32]): 1 mg/kg/day
LEL (rat [12]; [45]): 5 mg/kg/day
LOAEL (rat [12]; [45]): 5 mg/kg/day
LEL (rat [12]; [46]): 1 mg/kg/day
NEL (rat [12]; [46]): < 1 mg/kg/day
LOAEL (rat [12]; [47]): 5 mg/kg/day
NOAEL (rat [12]; [47]): 1 mg/kg/day
LEL (dog [13]; [14]): 0.5 mg/kg/day
LOAEL (dog [13]; [14]): 0.5 mg/kg/day
NEL (dog [13]; [14]): 0.25 mg/kg/day
NOAEL (dog [13]; [14]): 0.25 mg/kg/day
LEL (dog [13]; [48]): 12.5 mg/kg/day
LOAEL (dog [13]; [48]): > 12.5 mg/kg/day
NEL (dog [13]; [48]): 0.5 mg/kg/day
NOAEL (dog [13]; [48]): ≥ 12.5 mg/kg/day

From EPA's ToxRefDB 2
